# Data published in PMC12030314, “Biomarker-Driven Pharmacokinetics and Efficacy of Polymyxin B in Critically Ill Patients with XDR-GN Pneumonia” (Pharmaceuticals, 2025).
# Like-named read-outs stand apart in the source and are kept apart here. Where a SMILES comes first, the peptide text is derived from it. Bridges are numbered along the chain shown (N, C = ends). [ ]: non-standard residue; d: D form. The star is where a group is joined. X1 = CC[C@H](C)CCCCC(=O)*; Dab = NCC[C@H](N)C(=O)O
# Tests used:
# [1] = test system: plasma protein; assay: Binding of PMB in plasma, rapid equilibrium dialysis; type: in vitro ADME; settings: human, rapid equilibrium dialysis (Pierce RED), pooled patient plasma pH 7.4, 300 μL against PBS pH 7.4, 37 °C, triplicate, mean, read-out: plasma protein-binding ratio (converted)
# Description: The plasma protein binding of PMB was determined by rapid equilibrium dialysis device purchased from Thermo Scientific™ (Pierce RED, CAS90006, Rockford, IL, USA). For each patient, three plasma samples (totaling approximately 1 ml) were pooled (pH adjusted to 7.4), and the test was performed in triplicate. For each, 300 μL was dialyzed against an equal volume of isotonic phosphate-buffered saline (pH 7.4) at 37 °C for 4 h. PMB concentrations were determined, and the extent of protein binding was calculated as 1 minus the ratio of the PMB concentration in the buffer to that in the plasma and is expressed as a percentage.
# [2] = cited from earlier work
# Source text: Colistin (colistin methanesulfonate, CMS) and polymyxin B (PMB) are polymyxins that were approved for clinical use in the 1950s worldwide. Colistin is clinically administered as a prodrug, which requires conversion to the active form in vivo. […] The elimination of colistin is primarily dependent on renal function. Patients with renal impairment are prone to drug accumulation and increased nephrotoxicity risk. PMB is ... || Finally, we cannot rule out the possibility of the potential impacts of other combined drugs on PMB PK and the heterogeneity among the patients in our study. To date, little evidence supports the conclusion that the combined use of other drugs affects PMB PK. Studies have shown that urinary recovery from PMB is low (<5%). […] Further studies examining the nonrenal routes of PMB elimination are warranted, ...
# [3] = cited from earlier work; remark: listed apart in the source
# [4] = Asian and American patients, one-compartment model, ref Manchandani et al., 2018 [47]
# [5] = Asian and American patients, ref Manchandani et al., 2018 [47]
# [6] = Brazilian, Australian critically ill patients, ref Sandri et al., 2013 [48]
# [7] = Chinese MDR Gram-negative infected patients, ref Wang et al., 2020 [50]
# [8] = Chinese critically ill patients, CRO nosocomial pneumonia, ref Tang et al., 2023 [59]
# [9] = Chinese critically ill patients, CRO nosocomial pneumonia, ref Zhang et al., 2023 [60]
# [10] = Chinese critically ill patients, ref Pi et al., 2023 [57]
# [11] = Chinese patients with CRKP bloodstream infections, ref Yu et al., 2022 [56]
# [12] = Chinese patients with various renal functions, 100–200 mg/day, ref Yu et al., 2020 [51]
# [13] = ECMO, Russian critically ill patients, ref Surovoy et al., 2022 [53]
# [14] = Non-ECMO, Russian critically ill patients, ref Surovoy et al., 2022 [53]
# [15] = Renal insufficiency, Thai, American patients, ref Thamlikitkul et al., 2016 [52]
smiles,measurement,setting,value
"CC[C@H](C)CCCCC(=O)N[C@@H](CCN)C(=O)N[C@H](C(=O)N[C@@H](CCN)C(=O)N[C@H]1CCNC(=O)[C@H]([C@@H](C)O)NC(=O)[C@H](CCN)NC(=O)[C@H](CCN)NC(=O)[C@H](CC(C)C)NC(=O)[C@@H](Cc2ccccc2)NC(=O)[C@H](CCN)NC1=O)[C@@H](C)O [PMB, polymyxin B] (X1-[Dab]T[Dab][Dab][Dab][dF]L[Dab][Dab]T; lactam 4-C)",fraction unbound at 4 h,[1],0.145
same,urinary recovery,[2],< 5%
same,hepatobiliary metabolism (non-renal clearance),[2]; in vivo,~60%
same,V1,"[3]; American acutely ill patients, Gram-negative infection, loading 2.5 to 3 mg/kg, maintenance 2.8 mg/kg/day, one-compartment model, ref Kubin et al., 2018 [46]",34.4 L
same,V2,"[3]; American acutely ill patients, Gram-negative infection, two-compartment model, ref Miglis et al., 2018 [45]",78.20 L
same,CL,[3]; American critically ill patients with Gram-negative infections,approximately 2.5 L/h
same,V,[3]; [4],34.3 L
same,t1/2,[3]; [4],10.1 h
same,AUC in patients with nephrotoxicity,[3]; [5],52300 ng·h/mL
same,AUC in patients without nephrotoxicity,[3]; [5],45100 ng·h/mL
same,"AUCss,0–24h","[3]; Brazilian, Australian critically ill patients, 0.45–3.38 mg/kg/day, nonlinear mixed-effects model (PMB1 and PMB2), ref Sandri et al., 2013 [48]",66900 ng·h/mL
same,CL,[3]; [6],0.46 mL/min/kg
same,"Css,avg",[3]; [6],2790 ng/mL
same,V1,[3]; [6],0.0939 L/kg
same,V2,[3]; [6],0.330 L/kg
same,"AUCss,0–24h","[3]; Chinese MDR Gram-negative infected patients, all, ref Wang et al., 2021 [49]",80140 ng·h/mL
same,V1,"[3]; Chinese MDR Gram-negative infected patients, 100 to 200 mg/day, one- and two-compartment models, ref Wang et al., 2020 [50]",6.218 L
same,"AUCss,0–12 h",[3]; [7],43640 ng·h/mL
same,CL,[3]; [7],1.786 L/h
same,V2,[3]; [7],11.922 L
same,"Css,avg","[3]; Chinese MDR Gram-negative infected patients, ref Wang et al., 2021 [49]",3330 ng/mL
same,"AUCss,0–24h",[3]; [8],67200 ng·h/mL
same,"Cmax,ss",[3]; [8],5900 ng/mL
same,"Cmin,ss",[3]; [8],1900 ng/mL
same,V1,[3]; [8],12.5 ± 5.67 L
same,V2,[3]; [8],29.9 ± 17.3 L
same,"AUCss,0–24h",[3]; [9],67200 ng·h/mL
same,"Cmax,ss",[3]; [9],5900 ng/mL
same,"Cmin,ss",[3]; [9],1900 ng/mL
same,V1,[3]; [9],12.5 L
same,V2,[3]; [9],29.9 L
same,CL,[3]; [10],1.67 L/h
same,Cmax,[3]; [10],4590 ng/mL
same,V1,[3]; [10],7.857 L
same,V2,[3]; [10],12.668 L
same,t1/2,[3]; [10],5.29 h
same,"AUCss,0–24h",[3]; [11],79600 ng·h/mL
same,CL,[3]; [11],1.6 L/h
same,"Css,avg",[3]; [11],3350 ng/mL
same,V1,[3]; [11],38.6 L
same,V2,[3]; [11],7.13 L
same,"AUCss,0–24h","[3]; Chinese patients with CRO infections, 1.5–3.0 mg/kg/day, two-compartment model, ref Yang et al., 2022 [55]",58500 ng·h/mL
same,C0 h,"[3]; Chinese patients with CRO infections, ref Yang et al., 2022 [55]",1240 ng/mL
same,V1,"[3]; Chinese patients with severe CRO infections, loading 1.73, maintain 2.22 mg/kg/day, two-compartment model, ref Luo et al., 2022 [54]",11.7 L
same,"AUCss,0–24h","[3]; Chinese patients with severe pneumonia, 50 mg every 12 h (infusion for 1 h), noncompartment model, ref Chen et al., 2021 [58]",72700 ng·h/mL
same,t1/2,"[3]; Chinese patients with severe pneumonia, 50 mg every 12 h, ref Chen et al., 2021 [58]",8.69 h
same,CL,[3]; [12],1.59 L/h
same,Vd,[3]; [12],20.5 L
same,"AUCss,0–12 h","[3]; ECMO, Russian critically ill patients, COVID-19-associated pneumonia, loading 200–300 mg, 2.5–3 mg/kg/day, noncompartmental, ELISA, ref Surovoy et al., 2022 [53]",43380 ng·h/mL
same,"AUCss,0–24h",[3]; [13],96800 ng·h/mL
same,"CSS,avg",[3]; [13],4.03 mg/L
same,Cmax,[3]; [13],5960 ng/mL
same,Cmin,[3]; [13],2400 ng/mL
same,Tmax,[3]; [13],5 ± 24 min
same,Vd,[3]; [13],19.73 L
same,Cmin,"[3]; Following the loading dose, Chinese patients with CRKP bloodstream infections, loading 2.5 mg/kg, 1.25 mg/kg every 12 h, ref Yu et al., 2022 [56]",1620 ng/mL
same,Cmax,"[3]; Following the loading dose, Chinese patients with CRKP bloodstream infections, ref Yu et al., 2022 [56]",5530 ng/mL
same,CL,"[3]; Non-CRRT, Chinese patients with severe CRO infections, ref Luo et al., 2022 [54]",1.5 L/h
same,"AUCss,0–12 h",[3]; [14],34700 ng·h/mL
same,CL,[3]; [14],1.76 L/h
same,"CSS,avg",[3]; [14],2.9 mg/L
same,Cmax,[3]; [14],5080 ng/mL
same,Cmin,[3]; [14],2150 ng/mL
same,Vd,[3]; [14],30.4 L
same,"AUCss,0–24h","[3]; Normal renal function, Chinese patients, ref Wang et al., 2021 [49]",68630 ng·h/mL
same,AUC,"[3]; Normal renal function, Thai, American patients, 1.5–2.5 mg/kg/day, ref Thamlikitkul et al., 2016 [52]",63500 ng·h/mL
same,CL,"[3]; Normal renal function, Thai, American patients, ref Thamlikitkul et al., 2016 [52]",2.5 ± 0.4 L/h
same,"AUCss,0–24h","[3]; Renal insufficiency, Chinese patients, ref Wang et al., 2021 [49]",93040 ng·h/mL
same,AUC,[3]; [15],56000 ng·h/mL
same,CL,[3]; [15],2.0 L/h
same,CL,"[3]; human, in vivo",1.95 L/h
same,Cmax,"[3]; human, in vivo",5500 ng/mL
same,CL,"[3]; in vivo, 0.4 mg/kg/day",2.5 ± 1.1 L/h
same,"Css,avg",[3]; in vivo,1480 ng/mL
same,V2,[3]; in vivo,17.9 L
